Data published in patent US7091185B2, “Periodic antimicrobial peptides” (Dow Global Technologies Inc., priority 2003, dated 2006).
Like-named read-outs stand apart in the source and are kept apart here.

Tests used:
C. albicans 10231 = type: cell-based; conditions: 10231
Protocol: (§1) The MIC and IC50 values were determined by a broth microdilution method according to guidelines of the National Committee for Clinical Laboratory Standard as follows: In 96-well tissue culture plates, a fixed volume of bacterial suspension in 2× broth (as defined below) was added to the mixtures or individual compounds dispensed at concentrations varying from 1,000 to 1 μg/ml derived from serial two-fold dilutions in sterile water. The bacteria tested were P. aeruginosa American Type Culture Collection Number (ATCC) 10145, E. coli ATCC 2592, and S. aureus (methicillin reseistant) ATTC 33591.
(§2) The plates were incubated overnight, and the relative percent growth determined by optical density at 620 nm (OD620) using a TITERTEK MULTISKAN PLUS™. […] IC50 values were calculated using a sigmoidal curve fitting software program (GRAPHPAD,™ ISI Software,™ San Diego, Calif.). All samples were tested in duplicate and each assay was repeated at least twice. In the following table, KFAK is the repeat unit and multimers of KFAK were tested. IC50 and MIC are reported in μg/ml.
(§3) Because the antibacterial activity of the periodic peptides was so promising, further experiments were performed to determine if the periodic peptides also had antifungal activity. The experimental design was similar to that above, with accommodation made for fungal growth requirements, including the use of Sabouraud Dextrose Broth (SDB) and Sabouraud Dextrose Agar (SDA) slants.

Cr. Neoformans 32045 = type: cell-based
Protocol: as §1, §2, §3

[1] = system: S. aureus (methicillin resistant) ATCC 33591; conditions: ATCC 33591
Protocol: (§4) The bacteria tested were P. aeruginosa American Type Culture Collection Number (ATCC) 10145, E. coli ATCC 2592, and S. aureus (methicillin reseistant) ATTC 33591.
(§5) All experiments were compared to bacterial growth under optimal growth conditions (37° C., pH 7.0, absence of additional salt, growth media—referred to as standard growth conditions). In each plate, no growth control (media alone), positive growth control (bacteria with no test sample), positive antimicrobial controls (agents with known antimicrobial activity) and test compounds were tested.
(§6) The plates were incubated overnight, and the relative percent growth determined by optical density at 620 nm (OD620) using a […] […] PLUS™. […] All samples were tested in duplicate and each assay was repeated at least twice. […] IC50 and MIC are reported in μg/ml.

E. coli ATCC 2592 = conditions: ATCC 2592
Protocol: as §4, §5, §6

P. aeruginosa ATCC 10145 = conditions: ATCC 10145
Protocol: as §4, §5, §6

Red blood cells (RBC) = experiment: Red blood cell toxicity; type: cell-based
Red blood cell toxicity = type: cell-based; conditions: red blood cells (RBC)
P. aeruginosa ATCC 15442 = experiment: HMARQ biocidal kill activity; type: cell-based; conditions: P. aeruginosa ATCC 15442 (gram−)
Protocol: (§7) Biocide efficacy protocols were improved by reducing sample size, organizing the test material into an array format, implementing most probable number (MPN) quantitation and using multi-channel liquid handling equipment. We call the new method “high-throughput microanalysis and rapid quantitation” or “HMARQ.” HMARQ is directly applicable to current industrial efficacy tests such as multi-cycle preservation challenge or time course disinfection tests.
(§8) HMARQ is performed in a high throughput plate, such as 96-well microtiter plates. Typical sample volumes have been reduced down to 200 to 300 μL, but can be reduced further if desired. In these samples, no more than 10% of the total volume will be composed of the biocide and organism solution, and all non-matrix additions are normalized for all samples.
(§9) The sample matrix is first inoculated with the desired concentration of microorganisms. Inoculated sample matrix is then added to the 96-well assay block containing the biocide(s) under study. Each sample block contains biocide treated samples and untreated control samples (lacking biocide). Once the samples are prepared, the entire block of samples is mixed by vortexing until each sample is homogenous. In general, the study starts once mixing is complete, and samples are removed as required for the analysis. When Kill Time testing (rate of biocide activity) is performed, the microorganisms are added after biocide addition to the samples, allowing for rapid mixing and analysis.
(§10) Bacterial concentration (CFU/mL) is determined using the most probable number method (MPN). The contaminated solution is serially diluted until the “no growth” endpoint is reached. The endpoint represents the MPN and is expressed in units of the bacterial concentration. A serial 1:10 dilution will yield a bacterial concentration resolution of 1 log and the log reduction is determined by comparing the concentration of organisms in a treated sample to the concentration of organisms in untreated samples. For example, if a sample requires four 1:10 dilutions before bacterial growth is lost then the MPN for bacterial concentration in the sample is less than or equal to 1×10^4 CFU/mL (1E4). […] This method of enumeration is generally applicable to all non-filamentous microorganisms.
(§11) Media included Tryptic Soy Broth (TSB) for bacteria and Sabouraud Dextrose Broth (SDB) for fungi. These are available commercially and prepared according to the manufacturers instructions. Indicator medium was TSB/R for bacteria and SDB/R for fungi. These were made by addition of 50 μM filter sterilized Resazurin to the sterilized and cooled medium. Tryptic Soy agar plates (TSA) and SDA slants were used to provide inoculant for bacterial and fungal cultures. The indicator dye appeared pink or white when bacterial growth was present.
(§12) Using the HMARQ test described above, periodic peptides were generated and tested for Kill Activity. In this experiment, a broader range of peptidezs were tested for activity. Units are expressed as ppm (μg/mL) needed for 3.5 log kill at 15 min or 24 hour and the results are shown below.

Staph. aureus ATCC 6538 = experiment: HMARQ biocidal kill activity; type: cell-based; conditions: Staph. aureus ATCC 6538 (gram+)
Protocol: as §7, §8, §9, §10, §11, §12

HeLa cell line = experiment: HeLa MTS cellular reduction toxicity assay; type: cell-based; conditions: for TX50: 24 h, MTS
Protocol: The RBC protocol was from Blondelle (2000) and is described generally as follows: The toxicity toward the HeLa cell line was determined using a MTS (3-(4-5-dimethylthiazol-2-yl)-5-(3carboxymethoxyphenyl)-2-(4-sulfophenyl)-2H-tetrazolium, sodium salt) cellular reduction assay. MTS (2 mg/mL) was prepared in Dulbecco PBS (pH 7.35), filtered, aliquoted and stored at minus 20° C. In 96 well flat bottomed plates, cell suspensions (250 μL of 6×10^4 cell/mL in each well) were incubated for 48 h at 37° C. (5% CO2 incubator). The peptides (50 μL) were then added to the cell monolayer (following aspiration of the media from each well and addition of 50 μL of Dulbecco's Modified Eagles Medium) at varying concentrations derived from serial 2-fold dilutions, and the plates incubated for 24 h at 37° C. (5% CO2 incubator). Proliferation was then determined by adding a solution of phenazine methosulfate (PMS: 0.92 mg/mL in DPBS) to MTS at a 1:20 ration just prior to the assay. Twenty microliters MTS-PMS solution were added to each well and the plates incubated for 1 h at 37° C. (5% CO2 incubator). The relative percent toxicity was determined by comparing the absorbance at 490 nm of each peptide to the absorbance of cells without peptide. The TX50 (concentration required for 50% toxicity) was calculated using a sigmoidal curve fitting software (Graphpad Prism).

[2] = RBCs, concentration required for 50% toxicity, read-out: TX50

| Substance | IC50 (C. albicans 10231) [mg/L] | MIC (C. albicans 10231) [mg/L] | IC50 (Cr. Neoformans 32045) [mg/L] | MIC (Cr. Neoformans 32045) [mg/L] | IC50 [1] [mg/L] | MIC [1] [mg/L] | IC50 (E. coli ATCC 2592) [mg/L] | MIC (E. coli ATCC 2592) [mg/L] | IC50 (P. aeruginosa ATCC 10145) [mg/L] | MIC (P. aeruginosa ATCC 10145) [mg/L] | % kill at 250 μg/ml (Red blood cells (RBC)) [%] | HC50 at 24 h (Red blood cell toxicity; [2]) [µg/mL] | ppm needed for 3.5 log kill at 15 min (P. aeruginosa ATCC 15442) [ppm] | ppm needed for 3.5 log kill at 24 hr (P. aeruginosa ATCC 15442) [ppm] | ppm needed for 3.5 log kill at 15 min (Staph. aureus ATCC 6538) [ppm] | ppm needed for 3.5 log kill at 24 hr (Staph. aureus ATCC 6538) [ppm] | % kill at 500 μg/ml (HeLa cell line) [%] | TX50 (HeLa cell line) [µg/mL] | HC50 at 24 h (Red blood cell toxicity) [µg/mL] |
| --- | --- | --- | --- | --- | --- | --- | --- | --- | --- | --- | --- | --- | --- | --- | --- | --- | --- | --- | --- |
| H-FKAFKAFKAFKAFKAFKAFKAFKA-OH [FKA (8), FKA FKA FKA FKA FKA FKA FKA FKA] | 199 | 250 to 500 | 3.9 | 16 to 32 | 74 | >500 | 7 | 16 to 32 | 19 | 25 | 10 | > 500 | 125 | 16 | 8 | 125 | 60.4 | >500 |  |
| H-FKAFKAFKAFKAFKAFKAFKAFKAFKA-OH [FKA (9), FKA FKA FKA FKA FKA FKA FKA FKA FKA] | 195 | 250 to 500 | 16 | 62 to 125 | 17 | 31 to 62 | 4 | 31 to 62 | 16 | 20 | 24 | > 500 | 4 | 4 | 8 | 125 | 20.9 | 389 |  |
| H-FKAFKAFKAFKAFKAFKAFKAFKAFKAFKA-OH [FKA (10), FKA FKA FKA FKA FKA FKA FKA FKA FKA FKA] | 182 | 250 to 500 | 20 | 32 to 62 | 12 | 31 to 62 | 9 | 31 to 62 | 27 | 32 | 51 | > 500 | 8 | 16 | 8 | 8 | 15.0 | 234 |  |
| H-KFAKKFAKKFAKKFAKKFAKKFAKKFAKKFAK-OH [KFAK (8), KFAK KFAK KFAK KFAK KFAK KFAK KFAK KFAK] | 105 | 125 to 250 | 4.1 | 8 to 16 | 40 | 125 to 250 | 12 | 16 to 32 | 19 | 20 | 48 |  | 31 | 31 | >500 | 8 | 18.2 | 249 | > 500 |
| H-KFKKFKKFKKFKKFKKFKKFKKFK-OH [KFK (8), KEK KFK KFK KFK KFK KFK KFK KFK] | 113 | 125 to 250 | 25 | 40 to 62 | 72 | >250 | 20 | 32 to 62 | 145 | 250 | −6 | > 500 | >500 | >125 | >500 | 500 | 84.2 | >500 |  |
| H-KFKKFKKFKKFKKFKKFKKFKKFKKFKKFK-OH [KFK (10), KFK KFK KFK KFK KFK KFK KEK KFK KFK KFK] | 104 | 125 to 250 | 30 | 40 to 62 | 59 | >250 | 10 | 12 to 16 | 31 | 62 | 3 | > 500 | 8 | 8 | 4 | 500 | 56.8 | >500 |  |
| H-KKAKKKAKKKAKKKAKKKAKKKAKKKAK-OH [KKAK (7), KKAK KKAK KKAK KKAK KKAK KKAK KKAK] | >500 | >500 | 28 | >63 | 60 |  | 26 | 31 to 62 | 99 | 125 | −6 | > 500 | 16 | 16 | >500 | 125 | >87.9 | >500 |  |
